# Source: patent publication US20100310536A1, “METHOD FOR EXPANDING HEMATOPOIETIC STEM CELLS USING HETEROCYCLIC COMPOUND” (Nissan Chemical Industries Limited, priority 2007, published 2010)
# Tested on: human cord blood-derived CD34+ cells
# Assay: Expansion of CD34+ cells from human cord blood-derived CD34+ cells (7-day liquid culture with SCF, flow cytometry count)
# Assay type: cell-based
# Settings: 168 h, number of CD34+ cells relative to absence of compound, 100 ng/mL SCF, 7 days, 37° C., read-out: Expansion efficiency; for fold induction at 1 µg/mL: 1 μg/mL compound; for fold induction at 0.3 µg/mL: 0.3 μg/mL compound
# Method: Commercially available human cord blood-derived CD34^+ cells (Cambrex Bio Science Walkersville) were plated on a 12-well plate (Corning) (from 5000 to 10000 cells/1 mL/well). As the culture medium, StemSpan SFEM (Stemcell Technologies) containing 100 ng/mL SCF (R&D Systems) was used, and Compounds Nos. 1 to 11 dissolved in dimethyl sulfoxide were added in an amount of 0.1% (v/v) to a final concentration of 0.3 or 1 μg/mL.
# After the cells were incubated in liquid culture at 37° C. for 7 days in a CO2 incubator (in an atmosphere containing 5 vol % CO2), the total number of cells was counted by trypan blue assay (Invitrogen) or Flow-Count™ fluorosphere assay (Beckman Coulter). The number of CD34^+ cells was calculated as follows. After the incubation, the cells in the liquid culture was stained with a CD34 antibody (PE, Becton, Dickinson and Company). The stained cells were analyzed with a flow cytometer (Beckman Coulter) to determined the proportion of CD34^+ cells, which was multiplied by the total number of cells to calculate the number of CD34^+ cells.
# The expansion efficiencies in the presence of 0.3 μg/mL or 1 μg/mL of compounds based on the number of CD34^+ cells in the absence of them are shown in Table 1 on a scale of A for expansion efficiencies of 3 or greater, B for expansion efficiencies of at least 2 and less than 3, and C for expansion efficiencies of at least 1.4 and less than 2.
SMILES,fold induction at 1 µg/mL,fold induction at 0.3 µg/mL
C/C(=N\NC(=S)Nc1cccc(C(=O)NCCC(N)=O)c1)c1csc(-c2ccc(Cl)c(Cl)c2)c1O [compound 3],≥ 3,–
CC(=O)NC1CCN(C(=O)c2ccc(C(=O)N/N=C(\C)c3csc(-c4ccc(Cl)c(Cl)c4)c3O)s2)C1 (centres unmarked) [compound 1],≥ 3,–
C/C(=N\NC(=O)c1ccc(C(=O)CSc2ccncc2)s1)c1csc(-c2ccc(Cl)c(Cl)c2)c1O [compound 8],–,2 to 3
C/C(=N\NC(=O)c1ccc(C(=O)N(N)Cc2ccncc2)s1)c1csc(-c2ccc(Cl)c(Cl)c2)c1O [compound 6],–,1.4 to 2
C/C(=N\NC(=O)c1ccc(C(=O)N2CCS(=O)(=O)CC2)s1)c1csc(-c2ccc(Cl)c(Cl)c2)c1O [compound 9],–,1.4 to 2
C/C(=N\NC(=O)c1ccc(C(=O)NN(C)C)s1)c1csc(-c2ccc(Cl)c(Cl)c2)c1O [compound 2],≥ 3,–
C/C(=N\NC(=O)c1ccc(C(=O)NNc2ccccn2)s1)c1csc(-c2ccc(Cl)c(Cl)c2)c1O [compound 5],–,1.4 to 2
C/C(=N\NC(=O)c1ccc(C(=O)Cn2ccc(=O)cc2)s1)c1csc(-c2ccc(Cl)c(Cl)c2)c1O [compound 7],–,1.4 to 2
C/C(=N\NC(=O)c1ccc(C(=O)CSc2cc[n+]([O-])cc2)s1)c1csc(-c2ccc(Cl)c(Cl)c2)c1O [compound 10],≥ 3,–
C/C(=N\NC(=O)c1ccc(C(=O)N2CC(O)C(O)C2)s1)c1csc(-c2ccc(Cl)c(Cl)c2)c1O (centres unmarked) [compound 4],≥ 3,–
C/C(=N\NC(=O)c1ccc(C(=O)COc2cc(C)nn2C)s1)c1csc(-c2ccc(Cl)c(Cl)c2)c1O [compound 11],2 to 3,–
